Reference: PMC5218480 (PLoS ONE, 2017)

Test system: MV-4-11 cells
Assay: Gene expression microarray analysis (Affymetrix PrimeView) and GSEA
Assay type: cell-based, human
Design: RFU PODN (11730768_x_at) / Fold change /veh PODN (11730768_x_at) / RFU LINC00158 (11744669_a_at) / Fold change /veh LINC00158 (11744669_a_at) / RFU DUSP10 (11751237_a_at) / Fold change /veh DUSP10 (11751237_a_at) / RFU ID3 (11757404_x_at) / Fold change /veh ID3 (11757404_x_at) / RFU PLEKHG5 (11737974_s_at) / Fold change /veh PLEKHG5 (11737974_s_at) / RFU LRRC4B (11730491_at) / Fold change /veh LRRC4B (11730491_at) / RFU GIMAP4 (11747438_a_at) / Fold change /veh GIMAP4 (11747438_a_at) / RFU KRT8 (11758183_x_at) / Fold change /veh KRT8 (11758183_x_at) / RFU CNN1 (11734310_a_at) / Fold change /veh CNN1 (11734310_a_at) / RFU VPS37D (11726825_at) / Fold change /veh VPS37D (11726825_at) / RFU C10orf10 (11716522_x_at) / Fold change /veh C10orf10 (11716522_x_at) / RFU KIR2DL2 /// KIR2DL4 /// KIR2DL5A /// KIR2DL5B /// KIR2DS1 /// KIR2DS2 /// KIR2DS3 /// KIR2DS4 /// KIR3DL3 /// KIR3DL3 /// KIR3DS1 (11738374_at) / Fold change /veh KIR2DL2 /// KIR2DL4 /// KIR2DL5A /// KIR2DL5B /// KIR2DS1 /// KIR2DS2 /// KIR2DS3 /// KIR2DS4 /// KIR3DL3 /// KIR3DL3 /// KIR3DS1 (11738374_at) / RFU C1QL1 (11718748_at) / Fold change /veh C1QL1 (11718748_at) / RFU TMPRSS4 (11747572_a_at) / Fold change /veh TMPRSS4 (11747572_a_at) / RFU HAMP (11756126_x_at) / Fold change /veh HAMP (11756126_x_at) / RFU RNFT2 (11725882_a_at) / Fold change /veh RNFT2 (11725882_a_at) / RFU NR4A2 (11747474_a_at) / Fold change /veh NR4A2 (11747474_a_at) / RFU ABCC12 (11746883_a_at) / Fold change /veh ABCC12 (11746883_a_at) / RFU TMEM136 (11760407_x_at) / Fold change /veh TMEM136 (11760407_x_at) / RFU CLDN22 /// WWC2 (11732394_at) / Fold change /veh CLDN22 /// WWC2 (11732394_at) / RFU HLA-DPB1 (11760878_x_at) / Fold change /veh HLA-DPB1 (11760878_x_at) / RFU SPINT1 (11716480_a_at) / Fold change /veh SPINT1 (11716480_a_at) / RFU GAP43 (11754022_s_at) / Fold change /veh GAP43 (11754022_s_at) / RFU A4GNT (11735810_at) / Fold change /veh A4GNT (11735810_at) / RFU PRB3 (11715151_x_at) / Fold change /veh PRB3 (11715151_x_at) / RFU TUBB4B (11761932_at) / Fold change /veh TUBB4B (11761932_at) / RFU CAPN14 (11732068_a_at) / Fold change /veh CAPN14 (11732068_a_at) / RFU TMCC2 (11721928_a_at) / Fold change /veh TMCC2 (11721928_a_at) / RFU IRGQ (11745062_a_at) / Fold change /veh IRGQ (11745062_a_at) / RFU FAM174B (11720279_a_at) / Fold change /veh FAM174B (11720279_a_at) / RFU TMPRSS4 (11748680_a_at) / Fold change /veh TMPRSS4 (11748680_a_at) / RFU FAM212B (11763350_a_at) / Fold change /veh FAM212B (11763350_a_at) / RFU PLEKHG5 (11743358_a_at) / Fold change /veh PLEKHG5 (11743358_a_at) / RFU ZSCAN30 (11745921_a_at) / Fold change /veh ZSCAN30 (11745921_a_at) / RFU CMKLR1 (11741424_a_at) / Fold change /veh CMKLR1 (11741424_a_at) / RFU LOC101060620 /// MAPK8IP1 (11723275_at) / Fold change /veh LOC101060620 /// MAPK8IP1 (11723275_at) / RFU SPTSSB (11747773_x_at) / Fold change /veh SPTSSB (11747773_x_at) / RFU PRSS12 (11739890_at) / Fold change /veh PRSS12 (11739890_at) / RFU BIN1 (11741810_x_at) / Fold change /veh BIN1 (11741810_x_at) / RFU WNT11 (11732464_a_at) / Fold change /veh WNT11 (11732464_a_at) / RFU C10orf10 (11716521_a_at) / Fold change /veh C10orf10 (11716521_a_at) / RFU C5orf56 (11738089_at) / Fold change /veh C5orf56 (11738089_at) / RFU CYB561 (11721691_x_at) / Fold change /veh CYB561 (11721691_x_at) / RFU ANKRD19P (11752326_a_at) / Fold change /veh ANKRD19P (11752326_a_at) / RFU OR2T12 /// OR2T33 /// OR2T8 (11738714_s_at) / Fold change /veh OR2T12 /// OR2T33 /// OR2T8 (11738714_s_at) / RFU VCAN (11748164_a_at) / Fold change /veh VCAN (11748164_a_at) / RFU JSRP1 (11732532_at) / Fold change /veh JSRP1 (11732532_at) / RFU KRTAP10-11 (11738290_x_at) / Fold change /veh KRTAP10-11 (11738290_x_at) / RFU MYO3A (11730013_a_at) / Fold change /veh MYO3A (11730013_a_at) / RFU EBF3 (11725865_a_at) / Fold change /veh EBF3 (11725865_a_at) / RFU CAMK2N1 (11719241_x_at) / Fold change /veh CAMK2N1 (11719241_x_at) / RFU C5orf56 (11738088_a_at) / Fold change /veh C5orf56 (11738088_a_at) / RFU OLFML3 (11715873_a_at) / Fold change /veh OLFML3 (11715873_a_at) / RFU LOC100653217 /// NTM (11731650_a_at) / Fold change /veh LOC100653217 /// NTM (11731650_a_at) / RFU MAPK11 (11762145_a_at) / Fold change /veh MAPK11 (11762145_a_at) / RFU FIZ1 (11724087_x_at) / Fold change /veh FIZ1 (11724087_x_at) / RFU OASL (11726364_x_at) / Fold change /veh OASL (11726364_x_at) / RFU SOX15 (11748057_x_at) / Fold change /veh SOX15 (11748057_x_at) / RFU CD79A (11719716_a_at) / Fold change /veh CD79A (11719716_a_at) / RFU HIST1H1D (11736915_at) / Fold change /veh HIST1H1D (11736915_at) / RFU CASKIN2 (11723855_a_at) / Fold change /veh CASKIN2 (11723855_a_at) / RFU LOC730098 (11760151_x_at) / Fold change /veh LOC730098 (11760151_x_at) / RFU OR4N2 (11742367_at) / Fold change /veh OR4N2 (11742367_at) / RFU PRRT2 (11749266_a_at) / Fold change /veh PRRT2 (11749266_a_at) / RFU SNX32 (11753110_a_at) / Fold change /veh SNX32 (11753110_a_at) / RFU CDHR5 (11726645_a_at) / Fold change /veh CDHR5 (11726645_a_at) / RFU RCAN1 (11760418_a_at) / Fold change /veh RCAN1 (11760418_a_at) / RFU FAM167A (11723789_a_at) / Fold change /veh FAM167A (11723789_a_at) / RFU FAM26E (11764081_at) / Fold change /veh FAM26E (11764081_at) / RFU ISYNA1 (11749810_s_at) / Fold change /veh ISYNA1 (11749810_s_at) / RFU ACY1 (11761880_at) / Fold change /veh ACY1 (11761880_at) / RFU 11764098_at / Fold change /veh 11764098_at / RFU SAMD14 (11745864_x_at) / Fold change /veh SAMD14 (11745864_x_at) / RFU NPB (11741838_a_at) / Fold change /veh NPB (11741838_a_at) / RFU TMPRSS6 (11731388_a_at) / Fold change /veh TMPRSS6 (11731388_a_at) / RFU KRTAP10-2 (11738614_at) / Fold change /veh KRTAP10-2 (11738614_at) / RFU ARHGAP8 /// PRR5-ARHGAP8 (11727945_x_at) / Fold change /veh ARHGAP8 /// PRR5-ARHGAP8 (11727945_x_at) / RFU KRTAP5-7 /// NADSYN1 (11734609_at) / Fold change /veh KRTAP5-7 /// NADSYN1 (11734609_at) / RFU RASL12 (11751679_a_at) / Fold change /veh RASL12 (11751679_a_at) / RFU CDKN2B (11736163_a_at) / Fold change /veh CDKN2B (11736163_a_at) / RFU PRF1 (11729649_at) / Fold change /veh PRF1 (11729649_at) / RFU, ZNF638 /// ZNF638-IT1 / Fold change vs veh, ZNF638 /// ZNF638-IT1 / RFU, PANK3 / Fold change vs veh, PANK3 / RFU, SH3YL1 / Fold change vs veh, SH3YL1 / RFU, ZEB2 / Fold change vs veh, ZEB2 / RFU, NRIP1 / Fold change vs veh, NRIP1 / RFU, PTTG1IP / Fold change vs veh, PTTG1IP / RFU, CAPN2 / Fold change vs veh, CAPN2 / RFU, MED14 / Fold change vs veh, MED14 / RFU, SNORA58 / Fold change vs veh, SNORA58 / RFU, C1orf63 / Fold change vs veh, C1orf63 / RFU, LRRFIP1 / Fold change vs veh, LRRFIP1 / RFU, NDUFAF7 / Fold change vs veh, NDUFAF7 / RFU, SLC12A2 / Fold change vs veh, SLC12A2 / RFU, IBTK / Fold change vs veh, IBTK / RFU, ESF1 / Fold change vs veh, ESF1 / Fold change vs veh, TMEM50B / RFU, TAOK1 / Fold change vs veh, TAOK1 / RFU, ACBD3 / Fold change vs veh, ACBD3 / RFU, TMA16 / Fold change vs veh, TMA16 / RFU, RWDD3 / Fold change vs veh, RWDD3 / RFU, BCAT1 / Fold change vs veh, BCAT1 / RFU, EDEM3 / Fold change vs veh, EDEM3 / RFU, TMEM33 / Fold change vs veh, TMEM33 / RFU, WDR75 / Fold change vs veh, WDR75 / RFU, AHCTF1 / Fold change vs veh, AHCTF1 / RFU, TFRC / Fold change vs veh, TFRC / RFU, ZDHHC17 / Fold change vs veh, ZDHHC17 / RFU, NOM1 / Fold change vs veh, NOM1 / RFU, ARL8B / Fold change vs veh, ARL8B / RFU, ZBTB11 / Fold change vs veh, ZBTB11 / RFU, TAMM41 / Fold change vs veh, TAMM41 / RFU, KIAA1704 /// LOC100996395 / Fold change vs veh, KIAA1704 /// LOC100996395 / RFU, ING1 / Fold change vs veh, ING1 / RFU, TRMT61B / Fold change vs veh, TRMT61B / RFU, FUBP3 / Fold change vs veh, FUBP3 / RFU, TP53 / Fold change vs veh, TP53 / RFU, TNKS2 / Fold change vs veh, TNKS2 / RFU, ZFP14 / Fold change vs veh, ZFP14 / RFU, ACTR2 / Fold change vs veh, ACTR2 / RFU, PPP3R1 / Fold change vs veh, PPP3R1 / RFU, PIK3R1 / Fold change vs veh, PIK3R1 / RFU, HNRNPA1 / Fold change vs veh, HNRNPA1 / RFU, RNF170 / Fold change vs veh, RNF170 / RFU, ZNF28 / Fold change vs veh, ZNF28 / RFU, RNGTT / Fold change vs veh, RNGTT / RFU, OGT / Fold change vs veh, OGT / RFU, BRD1 / Fold change vs veh, BRD1 / RFU, MARS / Fold change vs veh, MARS / RFU, ZNF655 / Fold change vs veh, ZNF655 / RFU, FAHD1 / Fold change vs veh, FAHD1 / RFU, BDP1 / Fold change vs veh, BDP1 / RFU, LRRCC1 / Fold change vs veh, LRRCC1 / RFU, ARID1A / Fold change vs veh, ARID1A / RFU, ZNF146 / Fold change vs veh, ZNF146 / RFU, ZNF330 / Fold change vs veh, ZNF330 / RFU, GPN3 / Fold change vs veh, GPN3 / RFU, C9orf123 / Fold change vs veh, C9orf123 / RFU, N4BP2L2 / Fold change vs veh, N4BP2L2 / RFU, ARFIP1 / Fold change vs veh, ARFIP1 / RFU, FAM179B / Fold change vs veh, FAM179B / RFU, BCL10 / Fold change vs veh, BCL10 / RFU, UHRF1BP1L / Fold change vs veh, UHRF1BP1L / RFU, BET1 / Fold change vs veh, BET1 / RFU, CNOT2 / Fold change vs veh, CNOT2 / RFU, ZNF268 / Fold change vs veh, ZNF268 / Fold change vs veh, ZNF507 / RFU, DGCR2 / Fold change vs veh, DGCR2 / RFU, WDSUB1 / Fold change vs veh, WDSUB1 / Fold change vs veh, HSP90B1 /// MIR3652 / RFU, ADSS / Fold change vs veh, ADSS / RFU, GK / Fold change vs veh, GK / RFU, ZNF148 / Fold change vs veh, ZNF148 / RFU, TAF9 / Fold change vs veh, TAF9 / RFU, SLC1A5 / Fold change vs veh, SLC1A5 / RFU, SLMO2 / Fold change vs veh, SLMO2 / RFU, ABCC4 / Fold change vs veh, ABCC4 / RFU, LOC101060439 /// RAP1B / Fold change vs veh, LOC101060439 /// RAP1B / RFU, RFX7 / Fold change vs veh, RFX7 / RFU, GTPBP10 / Fold change vs veh, GTPBP10 / RFU, CNEP1R1 / Fold change vs veh, CNEP1R1 / RFU, BIVM-ERCC5 /// ERCC5 / Fold change vs veh, BIVM-ERCC5 /// ERCC5 / RFU, ILF3 / Fold change vs veh, ILF3 / RFU 11762660_at / Fold change /veh 11762660_at / RFU VCAN (11757783_s_at) / Fold change /veh VCAN (11757783_s_at) / RFU DDX43 (11728927_at) / Fold change /veh DDX43 (11728927_at) / RFU KRT8 (11758188_x_at) / Fold change /veh KRT8 (11758188_x_at) / RFU NKD1 (11759106_at) / Fold change /veh NKD1 (11759106_at) / RFU SRD5A1 (11742802_a_at) / Fold change /veh SRD5A1 (11742802_a_at) / RFU TPSAB1 /// TPSB2 (11721975_s_at) / Fold change /veh TPSAB1 /// TPSB2 (11721975_s_at) / RFU GSTM3 (11746129_a_at) / Fold change /veh GSTM3 (11746129_a_at) / RFU IL23R (11737362_x_at) / Fold change /veh IL23R (11737362_x_at) / RFU TMEM51 (11727254_a_at) / Fold change /veh TMEM51 (11727254_a_at) / RFU PIWIL2 (11732686_x_at) / Fold change /veh PIWIL2 (11732686_x_at) / RFU ORM1 (11744905_x_at) / Fold change /veh ORM1 (11744905_x_at) / RFU CCDC152 (11743942_at) / Fold change /veh CCDC152 (11743942_at) / RFU ECM1 (11717891_a_at) / Fold change /veh ECM1 (11717891_a_at) / RFU IL23R (11748794_a_at) / Fold change /veh IL23R (11748794_a_at) / RFU TNFAIP8L3 (11732012_x_at) / Fold change /veh TNFAIP8L3 (11732012_x_at) / RFU MBOAT4 (11741988_at) / Fold change /veh MBOAT4 (11741988_at) / RFU 11764193_at / Fold change /veh 11764193_at / RFU TMEM53 (11763286_at) / Fold change /veh TMEM53 (11763286_at) / RFU MAGEB2 (11727129_at) / Fold change /veh MAGEB2 (11727129_at) / RFU TMEM200A (11744735_a_at) / Fold change /veh TMEM200A (11744735_a_at) / RFU CCDC152 (11751479_a_at) / Fold change /veh CCDC152 (11751479_a_at) / RFU FAM211A (11726209_a_at) / Fold change /veh FAM211A (11726209_a_at) / RFU RGS16 (11746705_a_at) / Fold change /veh RGS16 (11746705_a_at) / RFU VCAN (11755009_s_at) / Fold change /veh VCAN (11755009_s_at) / RFU RHOB (11743442_s_at) / Fold change /veh RHOB (11743442_s_at) / RFU RGS16 (11720943_a_at) / Fold change /veh RGS16 (11720943_a_at) / RFU RGS16 (11720944_at) / Fold change /veh RGS16 (11720944_at) / RFU, VPS4B / Fold change vs veh, VPS4B / RFU, CREB1 / Fold change vs veh, CREB1 / RFU, DNAJC13 / Fold change vs veh, DNAJC13 / RFU, GNAQ / Fold change vs veh, GNAQ / RFU, CDK5R1 / Fold change vs veh, CDK5R1 / RFU, ZRANB3 / Fold change vs veh, ZRANB3 / RFU, CUL4A / Fold change vs veh, CUL4A / RFU, CCNY / Fold change vs veh, CCNY / RFU, UFL1 / Fold change vs veh, UFL1 / RFU, COG3 / Fold change vs veh, COG3 / RFU, DIAPH2 / Fold change vs veh, DIAPH2 / RFU, SKA2 / Fold change vs veh, SKA2 / RFU, AFF3 / Fold change vs veh, AFF3 / RFU, LMF1 / Fold change vs veh, LMF1 / RFU, IPO11 / Fold change vs veh, IPO11 / RFU, DFFB / Fold change vs veh, DFFB / RFU, FOXP1 / Fold change vs veh, FOXP1 / RFU, CARD8 / Fold change vs veh, CARD8 / RFU, STRN3 / Fold change vs veh, STRN3 / RFU, ADK / Fold change vs veh, ADK / RFU, RASSF2 / Fold change vs veh, RASSF2 / RFU, WIPF1 / Fold change vs veh, WIPF1 / RFU, LARP1B / Fold change vs veh, LARP1B / RFU, RASA1 / Fold change vs veh, RASA1 / RFU, RB1 / Fold change vs veh, RB1 / RFU, PPFIA1 / Fold change vs veh, PPFIA1 / RFU, MAT2A / Fold change vs veh, MAT2A / RFU, CCT5 / Fold change vs veh, CCT5 / RFU, WDR92 / Fold change vs veh, WDR92 / RFU, CUX1 / Fold change vs veh, CUX1 / RFU, TTC7A / Fold change vs veh, TTC7A / RFU, TMEM135 / Fold change vs veh, TMEM135 / RFU, DEPTOR / Fold change vs veh, DEPTOR / RFU, CPM / Fold change vs veh, CPM / RFU, DNAJB6 / Fold change vs veh, DNAJB6 / RFU, CACNA2D3 / Fold change vs veh, CACNA2D3 / RFU, DTX4 / Fold change vs veh, DTX4 / RFU, TFCP2 / Fold change vs veh, TFCP2 / RFU, GMCL1 /// GMCL1P1 / Fold change vs veh, GMCL1 /// GMCL1P1 / RFU, AEBP2 / Fold change vs veh, AEBP2 / RFU, SNHG1 /// SNORD22 /// SNORD25 /// SNORD26 /// SNORD27 /// SNORD28 /// SNORD29 /// SNORD31 / Fold change vs veh, SNHG1 /// SNORD22 /// SNORD25 /// SNORD26 /// SNORD27 /// SNORD28 /// SNORD29 /// SNORD31 / Fold change (Aza/veh), C12orf56 (ProbeSet 11735607_a_at) / Fold change (ACY-1035/veh), C12orf56 (ProbeSet 11735607_a_at) / Fold change (Aza/veh), FGFR1OP (ProbeSet 11751329_s_at) / Fold change (ACY-1035/veh), FGFR1OP (ProbeSet 11751329_s_at) / Fold change (Aza/veh), VPS36 (ProbeSet 11739960_a_at) / Fold change (ACY-1035/veh), VPS36 (ProbeSet 11739960_a_at) / RFU SYPL1 (11715823_x_at) / Fold change /veh SYPL1 (11715823_x_at) / RFU IGFBP7 (11715501_s_at) / Fold change /veh IGFBP7 (11715501_s_at) / RFU REEP3 (11722064_at) / Fold change /veh REEP3 (11722064_at) / RFU IGLL1 (11728026_x_at) / Fold change /veh IGLL1 (11728026_x_at): dose or concentration left out as unconfirmed
Details: ProbeSet 11724763_s_at; LIST D

Nc1ncn([C@@H]2O[C@H](CO)[C@@H](O)[C@H]2O)c(=O)n1 [azacitidine]
RFU, DEPTOR: 80.20 RFU
